Results: patent US20250367631A1, “TWO PHASE FLOWS FOR REACTIONS AND SEPARATIONS” (University of Delaware, priority 2024, published 2025)
Like-named read-outs stand apart in the source and are kept apart here.

Legend:
[1] = per Chen et al., cited from earlier work; for Diffusivity: HMF in the organic solvent; for Partition Coefficient: HMF, organic solvent/water
[2] = Organic solvent properties used in the CFD model (Table 2); type: physicochemical; details: for Density / Dynamic viscosity: organic solvent; for Interfacial Tension: organic solvent / water
Text: Principal component analysis (PCA) was used to identify the number of features required to capture the system's behavior. Considering material properties and dimensionless groups of both phases gave a total of 26 features (See Table 1 and definitions in the Supplemental Information (SI) herein below). The dimensionless groups were based on previous work. See, e.g., Chen, supra; Zhao, Y.; Chen, G.; Yuan, Q. “Liquid-liquid two-phase flow patterns in a rectangular microchannel.” AIChE Journal 2006, 52 (12), 4052-4060; Yagodnitsyna, A. A.; Kovalev, A. V.; Bilsky, A. V. “Flow patterns of immiscible liquid-liquid flow in a rectangular microchannel with T-junction.” Chemical Engineering Journal 2016, 303, 547-554; Zhao, C. X.; Middelberg, A. P. J. “Two-phase microfluidic flows.” Chemical Engineering Science 2011, 66 (7), 1394-1411. Apart from PCA, feature importance can rank features for classifying flowpatterns. A clustered covariance matrix may be employed to group dependent variables. We implemented these algorithms using the sklearn library in Python.
FIG. 11a, b, d and FIG. 11c maps the conditions for our experimental and computational flow patterns, respectively. As the diameter increases, different flow conditions (total volumetric flow rate, org/aq (v/v) ratio, various organic solvents) lead to varying patterns. […] For larger diameters, the parallel flow becomes prominent (FIG. 11c). […] At lower experimental flow rates (0.1-10 ml/min), no irregular flow is observed.

[3] = experimentally shown, Wang et al., cited from earlier work

Row | Density [2] [kg m^−3] | Dynamic viscosity [2] | Interfacial Tension [2] [N m^−1] | SMILES | Diffusivity [1] | Partition Coefficient [1] | KHMF (HMF partition coefficient) ([3]; 25° C.) | KHMF (HMF partition coefficient) ([3]; 150° C.)
1 | 812 | 3.47 × 10^−3 Pa · s | 0.0034 | CCCC(C)O (centres unmarked) [2-pentanol] | 3.81 × 10^−10 m^2/s | 1.3 ± 0.07 | – | –
2 | 900 | 4.41 × 10^−4 Pa · s | 0.0074 | CCOC(C)=O [EtAc, ethyl acetate] | 2.87 × 10^−9 m^2/s | 1.4 ± 0.05 | – | –
3 | 684 | 5.85 × 10^−4 Pa · s | 0.0157 | CC(=O)CC(C)C [MIBK, methyl isobutyl ketone] | 2.43 × 10^−9 m^2/s | 1.1 ± 0.03 | – | –
4 | – | – | – | Cc1cccc(O)c1 [m-cresol] | – | – | 20.6 | 4.2
